These results are taken from patent US5843990A, “Pyran-chromenone compounds, their synthesis and anti-HIV activity” (The University of Tennessee Research Corporation, priority 1996, dated 1998).

Entries after “also recorded” stand apart in the source; their conditions may differ. Where two headings read alike, the source gives them in different places.

For test [1], the system named is HIV-1. The test can be described thus: NCI (Weislow) anti-HIV screen, XTT cell protection, HIV-1 infected CEM-SS. It counts as cell-based. To be noted: for EC50: Human immunodeficiency virus 1, 6 days, HIV-1 infected CEM-SS cells, 8c, 8d tested as racemic drug, read-out: EC50 (effective inhibition for 50% of cell growth); for EC50 / TI (therapeutic index, IC50/EC50): Table 3; for anti-HIV activity / relative potency in words: NCI anti-HIV screen; for TI (therapeutic index, IC50/EC50) / Classification (Active / Moderately Active / Inactive): CEM-SS, HIV-1; for TI (therapeutic index, IC50/EC50): 8640 min; for Classification (Active / Moderately Active / Inactive): Weislow assay, criteria of NCI protocol. The protocol:
The compounds of this invention were also all assayed for activity in inhibiting the growth of HIV, human immunodeficiency virus, the virus known to cause AIDS. The protocol^25 was that of the National Cancer Institute (NCI) of the National Institutes of Health. The primary screen makes use of the HIV-1 strain of the virus. By this protocol, the procedure is as follows:
(1) The sample is dissolved in dimethyl sulfoxide, then diluted 1:100 in cell culture medium before preparing serial half-log10 dilutions. T4 lymphocytes (CEM cell line) are added, and after a brief interval, HIV-1 is added, resulting in a 1:200 dilution of the compound. Uninfected cells with the compound serve as a toxicity control, and infected and uninfected cells without the compound serve as basic controls. […]
(§1) (3) The tetrazolium salt, XTT, is added to all wells, and cultures are incubated to allow formazan color development by viable cells.
(§2) (4) Individual wells are analyzed spectrophotometrically to quantitate fornazan production, and in addition are viewed microscopically for detection of viable cells and confirmation of protective activity.
(§3) (5) Drug-treated, virus-infected cells are compared with drug-treated, noninfected cells and with other appropriate controls (untreated infected and untreated noninfected cells, drug-containing wells without cells, etc.) on the same plate.
(6) Data are reviewed in comparison with other tests done at the same time, and a determination about activity is made.
(§4) The results are given for IC50 and EC50. IC50 is a measure of "concentration for inhibition of 50% of cell growth" and is measured from drug-treated, uninfected cells, thus giving a measure of drug toxicity toward T4 lymphocytes. The EC50 is "effective inhibition for 50% of cell growth" and is measured on drug-treated, HIV-infected cells. A ratio of these values, IC50 /EC50 gives the therapeutic index, a measure of the overall effectiveness of the drug in halting virus-infestedcell growth. Typically for anti-HIV drugs to be classed as "active" in the NCI protocol, the IC50 value should be at least micromolar (10^-6 M) and the EC50 value should be sub-micromolar (10^-7 M or lower); however, these values are only ideal, and may vary a log-order in magnitude or more. […] Large, positive TI values, measured in the 10^2 -10^3 range indicate a potent, relatively nontoxic drug and represent the near-ideal drug candidate.
(§5) ^a Testing was conducted according to NCI's protocol [Weislow, O. W.
(§6) et al. J. Natl. Cancer Inst. 1989, 81, 577-586]. The virus strain was
(§7) HIV1, and the cell line was CEMSS.

Test [2] has as its system T4 lymphocytes (CEM cell line), CEMSS. The test can be described thus: NCI protocol toxicity control: growth of drug-treated, uninfected CEM-SS cells. It counts as cell-based. To be noted: Homo sapiens, Table 3, 8b-8e tested as racemic drug, read-out: IC50 (concentration for inhibition of 50% of cell growth). On the procedure:
(§8) (1) The sample is dissolved in dimethyl sulfoxide, then diluted 1:100 in cell culture medium before preparing serial half-log10 dilutions. T4 lymphocytes (CEM cell line) are added, and after a brief interval, HIV-1 is added, resulting in a 1:200 dilution of the compound. Uninfected cells with the compound serve as a toxicity control, and infected and uninfected cells without the compound serve as basic controls.
(§9) (2) Cultures are incubated at 37° C. in a 5% carbon dioxide atmosphere for six days.
as §1, §2, §3, §4, §5, §6, §7

Test [3] relates to DPS, a diphenyl sulfone-resistant strain bearing a different mutation at AA codon 181. Briefly: NCI protocol, DPS diphenyl sulfone-resistant strain, MT4 cells. It counts as cell-based, HIV-1. To be noted: for EC50: Human immunodeficiency virus 1, MT4; for TI (IC50/EC50) / Classification: Table 4, DPS, MT4 cells; for Classification: NCI criteria. On the procedure:
as §8, §9, §1, §2, §3, §4
(§10) Among these are the following strains of the virus: (1) HIV-1 (6R), an AZT-resistant strain; (2) N119, a nevirapine-resistant strain bearing a mutation at AA codon 181; (2) DPS, a diphenyl sulfone-resistant strain bearing a different mutation at AA codon 181.
as §5, §6
(§11) HIV1, and the cell line was MT4.

In test [4] the test system is strains of HIV resistant to other drugs that inhibit HIV reverse transcriptase. The test can be described thus: Activity against HIV strains resistant to other HIV reverse transcriptase inhibitors (summary in words). It counts as cell-based. To be noted: HIV-1 (6R), N119, DPS.
Source text: as §10
From the data in the Table, both compounds (-)-7a and 8a were classified as "active" for inhibition of each resistant HIV strain. From the large TI values, their potencies against these resistant strains of the virus are novel and remarkable. Other compounds of the invention are expected also to have this property.
as §5, §6, §11

Test [5] concerns MT4 cells. The test can be described thus: NCI protocol toxicity control: growth of drug-treated, uninfected MT4 cells. It counts as cell-based. The following applies: Homo sapiens. The protocol:
as §8, §9, §1, §2, §3, §4, §5, §6, §11

The subject of test [6] is HIV-1 (6R), an AZT-resistant strain. Briefly: NCI protocol, HIV-1 (6R) AZT-resistant strain, MT4 cells. It counts as cell-based. The following applies: for EC50: Human immunodeficiency virus 1, MT4; for TI (IC50/EC50) / Classification: Table 4, HIV-1 (6R), MT4 cells; for Classification: NCI criteria. On the procedure: as §8, §9, §1, §2, §3, §4, §10, §5, §6, §11

In test [7] the test system is N119, a nevirapine-resistant strain bearing a mutation at AA codon 181. The test can be described thus: NCI protocol, N119 nevirapine-resistant strain, MT4 cells. It counts as cell-based, HIV-1. The following applies: for EC50: Human immunodeficiency virus 1, MT4; for Classification: NCI criteria. On the procedure:
as §8, §9, §1, §2, §3, §4, §10, §5, §6, §11

Test [8] relates to human immunodeficiency virus (HIV). The following applies: four diastereomers of the calanolide series, literature, cited from earlier work.
Where [9] appears, read: MT4, Table 4, line of strain DPS.
[10] abbreviates: MT4, Table 4, line of strain HIV-1 (6R).
The mark [11] stands for this setting: MT4, Table 4, line of strain N119.

With `CCCc1cc(=O)oc2c3c(cc(OC(C)CC)c12)O[C@H](C)[C@@H](C)[C@@H]3O` (relative stereo) [Compound 8c], in test [1], the EC50 (commonly the concentration that produces a half-maximal response) was 3.66 µM; the “anti-HIV activity / relative potency in words” value is “less potent activities”; the “TI (therapeutic index, IC50/EC50)” value is 10.2; the “Classification (Active / Moderately Active / Inactive)” value was “Mod. Active; also recorded: moderately active”. The IC50 in test [2] turned out to be 37.4 µM.

In the case of `CCCc1cc(=O)oc2c3c(cc(OC(C)C)c12)O[C@@H](C)[C@H](C)[C@H]3O` [(-)-8a, (-)-(8S, 9R, 10R)-10-Hydroxy-5-isopropyloxy-8,9-dimethyl-4-propyl-9,10-dihydro-8H-pyrano[2,3-f]-chromen-2-one], in test [1], the “anti-HIV activity / relative potency in words” value was “consistently showed impressive results in the anti-HIV screen” and the “Classification (Active / Moderately Active / Inactive)” value was “Inactive”. Besides, the IC50 in test [2] was found to be 7.34 µM.

Take `CCCc1cc(=O)oc2c3c(cc(OC(C)C)c12)O[C@@H](C)[C@H](C)[C@@H]3O` [(-)-7a, (-)-(8S,9R,10S)-10-Hydroxy-5-isopropyloxy-8,9-dimethyl-4-propyl-9,10-di-hydro-8H-pyrano[2,3-f]-chromen-2-one]: the EC50 in test [3] amounted to 0.099 µM; in test [1], 0.963 µM; in test [6] it was 0.639 µM; in test [7] it was 0.00701 µM. For the same compound, the “TI (IC50/EC50)” value in test [3] is 121; in test [6] it was 16.9; in test [7] (Table 4, N119, MT4 cells), 1540. The Classification result in test [3] was “Active”; in test [6] it was “Active”; in test [7] (Table 4, N119, MT4 cells), “Active”. Besides, the entries for the “anti-HIV activity / relative potency in words” value in test [1] and in test [1] (listed as (-)-7) were “highly potent; also recorded: remarkable” and “consistently showed impressive results in the anti-HIV screen”, respectively. For the same compound, the “TI (therapeutic index, IC50/EC50)” value in test [1] is 84.2. Also, in test [1], the “Classification (Active / Moderately Active / Inactive)” value was “Active”. In addition, the IC50 amounted to 8.11 µM in test [2], 12 µM in test [5] (setting [9]), 10.8 µM in test [5] (setting [10]) and 11.1 µM in test [5] (setting [11]). Also, in test [4], the “inhibitory activity against resistant HIV strains, in words” value is listed as “potent inhibitory activities; also recorded: active; also recorded: potent activity”.

Consider `CCCc1cc(=O)oc2c3c(c4c(c12)OC(C)(C)C=C4)O[C@H](C)[C@@H](C)[C@@H]3O` [(+)-calanolide A], for which the “anti-HIV potency of known calanolides, in words” value in test [8] is “the more potent of the four diastereomers”; in test [8] (listed as (+)-Calanolide A), “more potent diastereomers in this class”.

With `CCCc1cc(=O)oc2c3c(c4c(c12)OC(C)(C)C=C4)OC(C)C(C)C3O` (single isomer, unassigned; (-)) [(-)-calanolide B], the “anti-HIV potency of known calanolides, in words” value in test [8] was “the more potent of the four diastereomers; also recorded: more potent diastereomers in this class”.

`C#CCOc1cc2c(c3oc(=O)cc(CCC)c13)[C@@H](O)[C@H](C)[C@@H](C)O2` (relative stereo) [Compound 8e]: in test [1], the “anti-HIV activity / relative potency in words” value is “less potent activities” and the “Classification (Active / Moderately Active / Inactive)” value was “Inactive”. The IC50 in test [2] is 8.34 µM.

As to `CCCc1cc(=O)oc2c3c(cc(OC(C)C)c12)O[C@H](C)[C@@H](C)[C@@H]3O` [Compound 8a, (+)-(8R,9S,10S)-10-Hydroxy-5-isopropyloxy-8,9-dimethyl-4-propyl-9,10-dihydro-8H-pyrano[2,3-f]-chromen-2-one], the EC50 was found to be 0.0649 µM in test [3], 0.161 µM in test [1], 0.365 µM in test [6] and 0.00635 µM in test [7]. The results for the “TI (IC50/EC50)” value in test [3] and in test [6] were more than 308 and 54.8, respectively. Besides, the Classification result in test [3] is “Active”; in test [6], “Active”; in test [7] (Table 4, N119, MT4 cells), “Active”. Further, the “anti-HIV activity / relative potency in words” value in test [1] was “consistently showed impressive results in the anti-HIV screen; also recorded: remarkable”; in test [1] (listed as (+)-8a), “remarkable among the congeners of the invention”. The “TI (therapeutic index, IC50/EC50)” value in test [1] is reported as 130. The “Classification (Active / Moderately Active / Inactive)” value in test [1] was “Active”. Further, the IC50 is 21 µM in test [2], more than 20 µM in test [5] (setting [9]), more than 20 µM in test [5] (setting [10]) and more than 20 µM in test [5] (setting [11]). Also, the “inhibitory activity against resistant HIV strains, in words” value in test [4] is “potent inhibitory activities; also recorded: active”; in test [4] (listed as (+)-8a), “potent activity”.

Consider `CCCc1cc(=O)oc2c3c(cc(OC(C)C)c12)O[C@H](C)[C@@H](C)[C@H]3O` [Compound 7a, (+)-(8R,9S,10R)-10-Hydroxy-5-isopropyloxy-8,9-dimethyl-4-propyl-9,10-di-hydro-8H-pyrano[2,3-f]-chromen-2-one], for which, in test [1], the “anti-HIV activity / relative potency in words” value is recorded as “consistently showed impressive results in the anti-HIV screen” and the “Classification (Active / Moderately Active / Inactive)” value was “Inactive”. Further, the IC50 in test [2] was found to be 8.4 µM.

For `CCCc1cc(=O)oc2c3c(cc(OC)c12)O[C@H](C)[C@@H](C)[C@@H]3O` (relative stereo) [Compound 8b], in test [1], the “anti-HIV activity / relative potency in words” value is “less potent activities” and the “Classification (Active / Moderately Active / Inactive)” value was “Inactive”. Further, the IC50 in test [2] was more than 200 µM.
